Assay results from ChEMBL document CHEMBL1201862, “PubChem BioAssay data set” (2004).
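A five-concentration, 48-hour dose response in 96-well plates underlies each endpoint, interpolated linearly between surrounding concentrations. GI50: concentration for 50% inhibition of growth.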 Activity calls are given as the source filed them. Rule as the data show it: active = GI50 up to about 1.1 µM and inactive = higher.

Columns and labels:
Test in all cases: NCI anticancer screen, dose series, 48 h
[1] = test system: U-251
[2] = test system: OVCAR-4
[3] = test system: A549
[4] = test system: SNB-19
[5] = test system: LOX IMVI
[6] = test system: LXFL 529
[7] = test system: MOLT-4
[8] = test system: DMS-273
[9] = test system: RXF 393
[10] = test system: OVCAR-8
[11] = test system: A498
[12] = test system: HCT-15
[13] = test system: SNB-78
[14] = test system: M14
[15] = test system: DMS-114
[16] = test system: CAKI-1
[17] = test system: SK-MEL-5
[18] = test system: HL-60
[19] = test system: ACHN
[20] = test system: NCI-H460
[21] = test system: UACC-257
[22] = test system: NCI-H522
[23] = test system: EKVX
[24] = test system: OVCAR-3
[25] = test system: SN12C
[26] = test system: M19-MEL
[27] = test system: 786-0
[28] = test system: UO-31
[29] = test system: COLO 205
[30] = test system: SK-OV-3
[31] = test system: CCRF-CEM
[32] = test system: SR
[33] = test system: UACC-62
[34] = test system: K562
[35] = test system: SK-MEL-28
[36] = test system: SNB-75
[37] = test system: SF-268
[38] = test system: KM-20L2
[39] = test system: SF-295
[40] = test system: HOP-62
[41] = test system: DLD-1
[42] = test system: NCI-H23
[43] = test system: HOP-92
[44] = test system: HCT-116
[45] = test system: RPMI-8226
[46] = test system: XF498
[47] = test system: SK-MEL-2
[48] = test system: SW-620
[49] = test system: TK-10
[50] = test system: KM12
[51] = test system: NCI-H226
[52] = test system: SF-539
[53] = test system: HCC 2998
[54] = test system: OVCAR-5
[55] = test system: Malme-3M
[56] = test system: IGROV-1
[57] = test system: HT-29

O=C1c2ccccc2C(=O)N1CCN(CCN1C(=O)c2ccccc2C1=O)Cc1ccccc1 was tested, and the GI50 [1] was > 100 µM (inactive), the GI50 [2] was > 100 µM (inactive) and the GI50 [3] was > 100 µM (inactive). For the same molecule, the GI50 [4] was > 100 µM (inactive), the GI50 [5] was > 100 µM (inactive) and the GI50 [6] was > 100 µM (inactive). For the same molecule, the GI50 [7] was > 100 µM (inactive), the GI50 [8] was > 100 µM (inactive) and the GI50 [9] was > 100 µM (inactive). For the same molecule, the GI50 [10] was > 100 µM (inactive), the GI50 [11] was > 100 µM (inactive) and the GI50 [12] was > 100 µM. For the same molecule, the GI50 [13] was > 100 µM (inactive), the GI50 [14] was > 100 µM (inactive) and the GI50 [15] was > 100 µM (inactive). For the same molecule, the GI50 [16] was > 100 µM (inactive), the GI50 [17] was > 100 µM (inactive) and the GI50 [18] was > 100 µM (inactive). For the same molecule, the GI50 [19] was > 100 µM (inactive), the GI50 [20] was > 100 µM (inactive) and the GI50 [21] was > 100 µM (inactive). For the same molecule, the GI50 [22] was > 100 µM (inactive), the GI50 [23] was > 100 µM (inactive) and the GI50 [24] was > 100 µM (inactive). For the same molecule, the GI50 [25] was > 100 µM (inactive), the GI50 [26] was > 100 µM (inactive) and the GI50 [27] was > 100 µM (inactive). For the same molecule, the GI50 [28] was > 100 µM (inactive), the GI50 [29] was > 100 µM (inactive) and the GI50 [30] was > 100 µM (inactive). For the same molecule, the GI50 [31] was > 100 µM (inactive), the GI50 [32] was > 100 µM (inactive) and the GI50 [33] was 36.7 µM (inactive). The GI50 [34] was > 100 µM (inactive), the GI50 [35] was > 100 µM (inactive) and the GI50 [36] was > 10 µM (inactive). The GI50 [37] was > 100 µM (inactive), the GI50 [38] was > 100 µM (inactive) and the GI50 [39] was > 100 µM (inactive). The GI50 [40] was > 100 µM (inactive), the GI50 [41] was > 100 µM (inactive) and the GI50 [42] was > 100 µM (inactive). The GI50 [43] was 68.2 µM (inactive), the GI50 [44] was > 100 µM (inactive) and the GI50 [45] was > 100 µM (inactive). The GI50 [46] was > 100 µM (inactive), the GI50 [47] was > 100 µM (inactive) and the GI50 [48] was > 100 µM (inactive). The GI50 [49] was > 100 µM (inactive) and the GI50 [50] was > 100 µM (inactive).

In the case of O=S(=O)(Sc1ccc(Cl)cc1)c1ccc(Cl)cc1, the GI50 [1] is reported as 10.3 µM (inactive), the GI50 [2] is reported as 20.6 µM (inactive) and the GI50 [3] is reported as 12.2 µM (inactive). The GI50 [4] was 19.3 µM (inactive), the GI50 [5] was 11.6 µM (inactive) and the GI50 [6] was 16 µM (inactive). The GI50 [7] was 9.79 µM (inactive), the GI50 [8] was 15.4 µM (inactive) and the GI50 [9] was 15.7 µM (inactive). For the same molecule, the GI50 [51] was 16.7 µM (inactive), the GI50 [52] was 14.6 µM (inactive) and the GI50 [10] was 16.1 µM (inactive). For the same molecule, the GI50 [11] was 15.9 µM (inactive), the GI50 [12] was 17.7 µM and the GI50 [13] was 24.2 µM (inactive). For the same molecule, the GI50 [14] was 17.5 µM (inactive), the GI50 [15] was 15.1 µM (inactive) and the GI50 [16] was 19.1 µM (inactive). The GI50 [17] was 15.2 µM (inactive), the GI50 [18] was 13.6 µM (inactive) and the GI50 [19] was 16.1 µM (inactive). The GI50 [20] was 17.1 µM (inactive), the GI50 [53] was 17.6 µM (inactive) and the GI50 [21] was 16.6 µM (inactive). The GI50 [22] was 17.1 µM (inactive), the GI50 [23] was 15.6 µM (inactive) and the GI50 [54] was 19.9 µM (inactive). For the same molecule, the GI50 [24] was 15.5 µM (inactive), the GI50 [55] was 17.5 µM (inactive) and the GI50 [25] was 12.4 µM (inactive). For the same molecule, the GI50 [26] was 17.9 µM (inactive), the GI50 [27] was 16 µM (inactive) and the GI50 [28] was 11.2 µM (inactive). The GI50 [29] was 17.7 µM (inactive), the GI50 [30] was 44.7 µM (inactive) and the GI50 [31] was 4.23 µM (inactive). For the same molecule, the GI50 [32] was 10.5 µM (inactive), the GI50 [33] was 16.6 µM (inactive) and the GI50 [34] was 19.9 µM (inactive). The GI50 [35] was 16.5 µM (inactive), the GI50 [36] was 17.7 µM (inactive) and the GI50 [37] was 7.16 µM (inactive). For the same molecule, the GI50 [38] was 17.8 µM (inactive), the GI50 [56] was 16.8 µM (inactive) and the GI50 [39] was 12.2 µM (inactive). The GI50 [40] was 15.3 µM (inactive), the GI50 [41] was 16.7 µM (inactive) and the GI50 [57] was 18.2 µM (inactive). The GI50 [42] was 16 µM (inactive), the GI50 [43] was 20.1 µM (inactive) and the GI50 [44] was 14.9 µM (inactive). For the same molecule, the GI50 [45] was 22.6 µM (inactive), the GI50 [46] was 20.2 µM (inactive) and the GI50 [47] was 3.84 µM (inactive). The GI50 [48] was 17.6 µM (inactive), the GI50 [49] was 21.4 µM (inactive) and the GI50 [50] was 14.7 µM (inactive).
